From US20260159497A1, “SOLID FORMS OF A COMPLEMENT FACTOR B INHIBITOR” (Novartis Pharma AG, priority 2022, published 2026)
Values after ≈ are worked out from the molar mass of the structure shown. Read-outs that look alike come from different tables or passages of the source.

What was measured:
[1] = Water content by Karl Fischer titration; type: physicochemical; conditions: ambient conditions; relative to total weight of the salt / free form
[2] = Dynamic vapor sorption (DVS) mass change; type: physicochemical; conditions: for Mass change by DVS, Desorption (%) / Mass change by DVS, Sorption (%): Table 5, 25 degree C., based on dry weight
From the text: [table] The mass change by DVS isotherm (2 cycles 40-0-95-0-40% RH) are in the tables below. The mass change is based on the dry weight of each.

[3] = Solubility in water and biorelevant buffers at 25° C.; type: physicochemical; conditions: 25° C., 24 h; for solubility at 24 h: thermodynamic from solid, read-out: Solubility (mg/mL) S
Description: Purchase sodium taurocholate (NaTC) from supplier. Account for assay. Add amount corresponding to 3 mM to PBS V1. Stir until dissolved. Equilibrate 1 h at 25° C. or 37° C. before use. Dispose after 48 h.
Purchase FaSSIF-V2 from supplier (biorelevant.com). Amount added to PBS-V1 according to Table 1. Stir until dissolved. Equilibrate 1 h at 25° C. or 37° C. before use. Dispose after 48 h.
Purchase FeSSIF-V2 from supplier (biorelevant.com). Amount added to PBS-V1 according to Table 1. Stir until dissolved. Equilibrate 1 h at 25° C. or 37° C. before use. Dispose after 48 h.

[4] = Intrinsic dissolution rate; type: physicochemical
[5] = Compression stability (XRPD after compression); type: physicochemical; conditions: 4 tons of compression for 5 min
From the text: Method: […] Afterwards, characterize the sample by XRPD to detect any change in the solid state.

[6] = Grinding and wet granulation; type: physicochemical
From the text: Method: Granulate was obtained in solid-state forms. […] Dry the wet-cake under vacuum or at atmospheric pressure. Evaluate solid form and degree of crystallinity by e.g. XRPD and/or DSC.

[7] = Solubility in Simulated Fluids at 37° C.; type: physicochemical; conditions: for solubility at 30 min / solubility at 24 h: 37 °C, thermodynamic from solid; for solubility at 30 min: read-out: Solubility (mg/mL) 30 min; for solubility at 24 h: read-out: Solubility (mg/mL) 24 h
From the text: Solubility data of Form A (S)-4-(2,2-difluoro-7-((5-methoxy-7-methyl-1H-indol-4-yl)methyl)-7-azaspiro[3.5]nonan-6-yl)benzoic acid, Form B (S)-4-(2,2-difluoro-7-((5-methoxy-7-methyl-1H-indol-4-yl)methyl)-7-azaspiro[3.5]nonan-6-yl)benzoic acid p-toluene sulfonic acid salt, Form C (S)-4-(2,2-difluoro-7-((5-methoxy-7-methyl-1H-indol-4-yl)methyl)-7-azaspiro[3.5]nonan-6-yl)benzoic acid p-toluene sulfonic acid salt, and Form D (S)-4-(2,2-difluoro-7-((5-methoxy-7-methyl-1H-indol-4-yl)methyl)-7-azaspiro[3.5]nonan-6-yl)benzoic acid hydrochloride salt in Simulated Fluids at 37° C.

[8] = Stability of Forms A and B under stress conditions (temperature/humidity, capsules, light)
[9] = pH 2.0, 0.01 M HCl, 37° C., 100 rpm, 120 min
[10] = pH 6.5, phosphate buffer 50 mM (PBS-V1), 37° C., 100 rpm, 120 min

Which results are given for `COc1cc(C)c2[nH]ccc2c1CN1CCC2(C[C@H]1c1ccc(C(=O)O)cc1)CC(F)(F)C2` [Form A, (S)-4-(2,2-difluoro-7-((5-methoxy-7-methyl-1H-indol-4-yl)methyl)-7-azaspiro[3.5]nonan-6-yl)benzoic acid]?
water content by Karl Fischer titration [1]: 0.15 % w/w; moisture absorbed by DVS (absorbs up to) ([2]; 95% RH at 25° C.): up to 0.45%; Mass change by DVS, Desorption (%) ([2]; 0% RH): −0.01%; Mass change by DVS, Sorption (%) ([2]; 0% RH): 0.00%; Mass change by DVS, Desorption (%) ([2]; 10% RH): 0.06%; Mass change by DVS, Sorption (%) ([2]; 10% RH): 0.04%; Mass change by DVS, Desorption (%) ([2]; 20% RH): 0.12%; Mass change by DVS, Sorption (%) ([2]; 20% RH): 0.08%; Mass change by DVS, Desorption (%) ([2]; 30% RH): 0.17%; Mass change by DVS, Sorption (%) ([2]; 30% RH): 0.13%; Mass change by DVS, Desorption (%) ([2]; 40% RH): 0.22%; Mass change by DVS, Sorption (%) ([2]; 40% RH): 0.17%; Mass change by DVS, Desorption (%) ([2]; 50% RH): 0.26%; Mass change by DVS, Sorption (%) ([2]; 50% RH): 0.22%; Mass change by DVS, Desorption (%) ([2]; 60% RH): 0.32%; Mass change by DVS, Sorption (%) ([2]; 60% RH): 0.26%; Mass change by DVS, Desorption (%) ([2]; 70% RH): 0.35%; Mass change by DVS, Sorption (%) ([2]; 70% RH): 0.30%; Mass change by DVS, Desorption (%) ([2]; 80% RH): 0.38%; Mass change by DVS, Sorption (%) ([2]; 80% RH): 0.35%; Mass change by DVS, Desorption (%) ([2]; 90% RH): 0.42%; Mass change by DVS, Sorption (%) ([2]; 90% RH): 0.40%; Mass change by DVS, Desorption (%) ([2]; 95% RH): 0.45%; Mass change by DVS, Sorption (%) ([2]; 95% RH): 0.45%; pH of solubility sample (pH) ([3]; FaSSGF, pH 1.6): 1.68; pH of solubility sample (pH) ([3]; PBS-V1 + 3 mM NaTC, pH 6.5): 6.51; pH of solubility sample (pH) ([3]; PBS-V1 + 0.3 FeSSIF-V2, pH 6.5): 6.52; pH of solubility sample (pH) ([3]; PBS-V1 + 2.0 FeSSIF-V2, pH 6.5): 6.73; pH of solubility sample (pH) ([3]; PBS-V1 + FaSSIF-V2, pH 6.5): 6.69; pH of solubility sample (pH) ([3]; PBS-V1 + FeSSIF-V2, pH 6.5): 6.74; solubility at 24 h ([3]; fassgf or other biorelevant, FaSSGF, pH 1.6): > 2 mg/mL; solubility at 24 h ([3]; fassgf or other biorelevant, PBS-V1 + 3 mM NaTC, pH 6.5): 0.068 mg/mL; solubility at 24 h ([3]; fassgf or other biorelevant, PBS-V1 + 0.3 FeSSIF-V2, pH 6.5): 0.074 mg/mL; solubility at 24 h ([3]; fassgf or other biorelevant, PBS-V1 + 2.0 FeSSIF-V2, pH 6.5): 0.12 mg/mL; solubility at 24 h ([3]; PBS-V1 + FaSSIF-V2, pH 6.5): 0.072 mg/mL; solubility at 24 h ([3]; PBS-V1 + FeSSIF-V2, pH 6.5): 0.094 mg/mL; solubility at 24 h ([3]; water): 0.052 mg/mL (≈ 114 µM); pH of solubility sample (pH) ([3]; water): 7.40; intrinsic dissolution rate ([4]; PBS-V1 (pH 6.5)): 0.0028 mg/min/cm^2; intrinsic dissolution rate ([4]; pH 2.0, 0.01 M HCl): 0.081 mg/min/cm^2; form change after intrinsic dissolution [4, 9]: (No form change); intrinsic dissolution rate [4, 9]: 0.081 mg · min^−1 · cm^−2; form change after intrinsic dissolution [4, 10]: (No form change); intrinsic dissolution rate [4, 10]: 0.0028 mg · min^−1 · cm^−2; form change in XRPD after compression [5]: no form change; crystallinity from XRPD pattern after grinding ([6]; after grinding): crystallinity decrease; form change after grinding and wet granulation ([6]; dry grinding (2 min and 5 min) and wet granulation (water and ethanol)): did not lead to any form change; solubility at 30 min ([7]; fassgf or other biorelevant, FaSSGF, 30 min): 2.28 mg/mL (≈ 5020 µM); solubility at 24 h ([7]; fassgf or other biorelevant, FaSSGF, 24 h): > 2 mg/mL; solubility at 30 min ([7]; fassif, FaSSIF, 30 min): 0.24 mg/mL (≈ 528 µM); solubility at 24 h ([7]; fassif, FaSSIF, 24 h): 0.18 mg/mL (≈ 396 µM); solubility at 30 min ([7]; fessif, FeSSIF, 30 min): 0.31 mg/mL (≈ 682 µM); solubility at 24 h ([7]; fessif, FeSSIF, 24 h): 0.31 mg/mL (≈ 682 µM); solubility at 30 min ([7]; pH 7, water, Water, initial pH 7.00, 30 min): 0.21 mg/mL (≈ 462 µM); solubility at 24 h ([7]; pH 7, water, Water, initial pH 7.00, 24 h): 0.22 mg/mL (≈ 484 µM); pH at 24 h ([7]; FaSSGF): 1.61; pH at 24 h ([7]; FaSSIF): 6.48; pH at 24 h ([7]; FeSSIF): 5.00; pH at 24 h ([7]; Water, initial pH 7.00): 7.12; stability in HPMC and HGC capsules ([8]; 50° C. with 11% and 75% RH for 2 weeks): chemically and physically stable; degradation under light stress ([8]; 1200 kLux light stress): about 0.9%; form change by XRPD after humidity exposure ([8]; exposed to 80% or 92% RH for 24 hrs): no change; chemical stability in bulk state ([8]; stored at 50° C. with 11% RH or 75% RH for 1 week): chemically stable; discoloration in bulk state ([8]; stored at 80° C. with 11% RH or 75% RH): slight to medium discoloration; polymorphic form in the stress conditions ([8]; temperature/humidity and light stress conditions): unchanged
